From paper PMC10940605, “Design, synthesis and in vitro anticancer activity of some new lomefloxacin derivatives” (Scientific Reports, 2024) come the findings set out here.

The subject of this assay is leukemia SR cells. Description: Cell cycle analysis, PI flow cytometry. Type of assay: cell-based, human. Also noted: increase of cells at pre-G1 phase vs control: concentration or dose not given beside the values. Here is the method: The cells were washed twice using Ice-cold phosphate buffer saline (PBS). • Centrifugation was used to collect the cells, then the cells were fixed in 70% (v/v) ethanol, washed with PBS and re-suspended with 0.10 mg/mL RNase. • After that, cells were stained with […] propidium iodide (PI) and evaluated by flow cytometry using FACSCalibur (Becton Dickinson).

Turning to `CCn1cc(C(=O)NN=Cc2cccs2)c(=O)c2cc(F)c(N3CCNC(C)C3)c(F)c21` (centres unmarked) [Compound 3e, 1-Ethyl-6,8-difluoro-7-(3-methylpiperazin-1-yl)-4-oxo-N'-(thiophen-2-ylmethylene)-1,4-dihydroquinoline-3-carbohydrazide], the “increase of cells at pre-G1 phase vs control” value is on record as 10.19 folds. For the same compound, under “3e at 1.90 µM, 24 h”, the “%G0-G1” value is on record as 24.66%, the “%G2-M” value is given as 49.26%, the “%Pre-G1” value came out at 26.19% and the “%S” value is 26.08%.
